Results: patent publication US20260174761A1 (priority 2022, published 2026)

Key:
IBD mice = assay: DSS-induced inflammatory bowel disease (IBD) mouse model: colon IL-6 by ELISA and colon length; assay type: in vivo, C57BL6 mice; settings: for reduction of IL-6 levels within the colon: male mice, 2.5% DSS for 5 days, treatment from day 4 for four days, 2-CL-MGV-1 15 mg/kg, dexamethasone 0.75 mg/kg, vs DSS without treatment
Protocol: FIG. 1 includes a bar graph showing that interleukin (IL) 6 levels in the gut of IBD mice are reduced in response to 2-CL-MGV-1 treatment. Nine-weeks-old C57BL6 male mice were given 2.5% dextran sulfate sodium (DSS) in drinking water for 5 days. Naive mice were given water only. The treatments: 2-CL-MGV-1 and dexamethasone were given on day 4 for four days. […] ANOVA followed by Bonferroni's post-hoc test was performed. ***p<0.00001 compared to control.
FIG. 2 includes a bar graph showing that the treatment with 2-CL-MGV-1 reduces the shortening of IBD mice colon. Nine-weeks-old C57BL6 male mice were given 2.5% DSS in drinking water for 5 days. Naive mice were given water only. The treatments: 2-CL-MGV-1 and dexamethasone were given on day 4 for four days.
FIG. 4 includes a vertical bar graph showing that IL 6 levels in the gut of IBD mice are reduced in response to 2-CL-MGV-1 treatment. C57BL female mice aged of 8-10 weeks were given 2.5% DSS in their drinking water for 7 days. Vehicle group mice were given water only and DMSO injections on the 4th day for 4 days. DSS group received DSS with DMSO (as a vehicle) that were given on the 4th day for 4 days. The treatment group received 2-CL-MGV-1 (15 mg/kg) and DMSO as a vehicle were given on the 4th day for 4 days. […] ANOVA followed by Bonferroni's post-hoc test was performed. ***p<0.001 compared to control.
FIG. 5 includes a vertical bar graph showing that the treatment with 2-CL-MGV-1 reduces the shortening of IBD mice colon. C57BL female mice aged of 8-10 weeks were given 2.5% DSS in their drinking water for 7 days. Vehicle group mice were given water only and DMSO injections on the 4th day for 4 days. DSS group received DSS with DMSO (as a vehicle) that were given on the 4th day for 4 days. The treatment group received 2-CL-MGV-1 (15 mg/kg) and DMSO (as a vehicle) that were given on the 4th day for 4 days. […] ANOVA followed by Bonferroni's post-hoc test was performed. ***p<0.001 compared to control.
C57BL mice 8-10 weeks old were given 2.5% DSS in their drinking water for 7 days. On the fourth day, the mice were injected subcutaneously (S.C) with either DMSO or 2-CL-MGV-1 (30 μl) for four days. The mice were sacrificed on the eighth day of the experiment.
In the IBD experiment, 2-Cl-MGV-1 was injected subcutaneously for four days, three days after inflammation induction in the colon, using dextran sulfate sodium (DSS). On the following day, the mice were sacrificed, and the colon was removed. Colon lengths were measured, and cytokine levels were detected by ELISA.

[1] = high concentrations (above 100 μM); cited from earlier work
[2] = test system: human retinal pigment epithelium (RPE)-19 cell line; assay: In vitro AMD model: RPE-19 cells stimulated with TNF-α and INF-γ (TI), secreted pro-inflammatory mediators; assay type: cell-based; settings: RPE cells pretreated with compound, TNF-α and INF-γ stimulation
Text: TNF-α and INF-γ stimulation (TI).
Next, the effect of 2-CL-MGV-1 was examined in an in vitro model of age-related macular degeneration (AMD). Human retinal pigment epithelium (RPE)-19 cell line stimulated with TNF-α and INF-γ (TI) are known to mimic AMD by complement activation and increased levels of circulating cytokines.

[3] = test system: lipopolysaccharide (LPS)-induced microglial activation; settings: recent studies of the inventors; cited from earlier work
[4] = female mice, 2.5% DSS for 7 days, 2-CL-MGV-1 15 mg/kg s.c. from 4th day for 4 days, vs DSS+vehicle (DMSO)

| Compound | reduction of IL-6 levels within the colon (IBD mice) | decrease in IL-6 content in the colon (IBD mice; [4]) | increase in colon length (IBD mice; [4]) | colon shrinkage effect compared to dexamethasone (IBD mice; male DSS mice, 2-CL-MGV-1 15 mg/kg vs dexamethasone 0.75 mg/kg) | colon shrinkage (shortening) effect (IBD mice; male and female DSS mice, 2-CL-MGV-1 15 mg/kg for four days) | effect on IL-6 secretion relative to dexamethasone (DEX) treatment (IBD mice; murine IBD model, compared to DEX) | lethal effects [1] | TI-induced secretion of IL-8 [2] | TI-induced secretion of complement C3 [2] | TI-induced secretion of complement C5 [2] | TI-induced secretion of reactive oxygen species (ROS) [2] | LPS-induced microglial activation [3] |
| --- | --- | --- | --- | --- | --- | --- | --- | --- | --- | --- | --- | --- |
| C[C@@H]1C[C@H]2[C@@H]3CCC4=CC(=O)C=C[C@]4(C)[C@@]3(F)[C@@H](O)C[C@]2(C)[C@@]1(O)C(=O)CO [dexamethasone, reference compound] | 20% |  |  |  |  |  |  |  |  |  |  |  |
| CN(C)C(=O)Oc1nc(-c2ccccc2Cl)nc2ccccc12 [2-Cl-MGV-1, 2-chlorophenyl quinazolin-4-yl dimethylcarbamate] | 75% | 64% | 26% | significantly more pronounced | alleviated the colon shrinkage effect | about 75% | very few lethal effects | significantly reduced | significantly reduced | significantly reduced | significantly reduced | inhibit |
| CCC(C)N(C)C(=O)c1cc2ccccc2c(-c2ccccc2Cl)n1 (centres unmarked) [PK 11195, reference compound] |  |  |  |  |  |  | pronounced lethal effects |  |  |  |  |  |
